PubChem BioAssay AID248 (DTP/NCI, 2004)
Several values for one entry are separate records, joined by “and”; a condition that tells them apart may be missing. Equal entries are not always repeated. Inconclusive results and toxic doses are left out.

Test system: L1210 leukemia ip in BDF1 mice, survival T/C
Assay: NCI In Vivo Anticancer Drug Screen. Data for tumor model L1210 Leukemia (intraperitoneal) in B6D2F1 (BDF1) mice
Settings: higher = longer survival
Outline: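 Read-out is survival time, reported as the treated-group measurement over the vehicle-control measurement.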

[1] = endpoint: mean survival time, dose: 1.0 mg/kg/injection, schedule: Q01DX009 (ip), vehicle: saline
[2] = endpoint: mean survival time, dose: 2.0 mg/kg/injection, schedule: Q01DX009 (ip), vehicle: saline
[3] = endpoint: mean survival time, dose: 4.0 mg/kg/injection, schedule: Q01DX009 (ip), vehicle: saline

NC(=O)N(CCCl)N=O
T/C (endpoint: mean survival time, dose: 0.06 mg/kg/injection, schedule: Q#A X Z (oral), vehicle: saline): 123 % of control
T/C (endpoint: mean survival time, dose: 0.12 mg/kg/injection, schedule: Q01DX010 (iv), vehicle: saline): 98 % of control
T/C (endpoint: mean survival time, dose: 0.13 mg/kg/injection, schedule: Q01DX Z (oral), vehicle: saline): 118 % of control
T/C (endpoint: mean survival time, dose: 0.19 mg/kg/injection, schedule: Q03DX Z (oral), vehicle: saline): 112 % of control
T/C (endpoint: mean survival time, dose: 0.2 mg/kg/injection, schedule: Q01DX Z (sc), vehicle: methylcellulose (MC)): 101 % of control
T/C (endpoint: mean survival time, dose: 0.25 mg/kg/injection, schedule: Q01DX010 (iv), vehicle: saline): 118 % of control
T/C (endpoint: mean survival time, dose: 0.25 mg/kg/injection, schedule: Q01DX Z (oral), vehicle: saline): 182 % of control
T/C (endpoint: mean survival time, dose: 0.25 mg/kg/injection, schedule: Q#A X Z (oral), vehicle: saline): 255 % of control
T/C (endpoint: mean survival time, dose: 0.38 mg/kg/injection, schedule: Q03DX Z (oral), vehicle: saline): 121 % of control
T/C (endpoint: mean survival time, dose: 0.4 mg/kg/injection, schedule: Q01DX Z (ip), vehicle: carboxymethylcellulose (CMC)): 157 % of control and 201 % of control
T/C (endpoint: mean survival time, dose: 0.4 mg/kg/injection, schedule: Q01DX Z (ip), vehicle: methylcellulose (MC)): 151 % of control
T/C (endpoint: mean survival time, dose: 0.4 mg/kg/injection, schedule: Q01DX Z (sc), vehicle: methylcellulose (MC)): 98 % of control and 101 % of control
T/C (endpoint: mean survival time, dose: 0.44 mg/kg/injection, schedule: Q07DX Z (oral), vehicle: saline): 105 % of control
T/C (endpoint: mean survival time, dose: 0.5 mg/kg/injection, schedule: Q01DX009 (ip), vehicle: saline): 159 % of control and 163 % of control and 176 % of control
T/C (endpoint: mean survival time, dose: 0.5 mg/kg/injection, schedule: Q01DX Z (oral), vehicle: saline): 266 % of control
T/C (endpoint: mean survival time, dose: 0.6 mg/kg/injection, schedule: Q01DX Z (ip), vehicle: carboxymethylcellulose (CMC)): 170 % of control and 197 % of control
T/C (endpoint: mean survival time, dose: 0.6 mg/kg/injection, schedule: Q01DX Z (ip), vehicle: methylcellulose (MC)): 166 % of control and 171 % of control
T/C (endpoint: mean survival time, dose: 0.6 mg/kg/injection, schedule: Q01DX Z (sc), vehicle: methylcellulose (MC)): 98 % of control and 101 % of control
T/C (endpoint: mean survival time, dose: 0.88 mg/kg/injection, schedule: Q07DX Z (oral), vehicle: saline): 124 % of control
T/C (endpoint: mean survival time, dose: 0.9 mg/kg/injection, schedule: Q01DX Z (ip), vehicle: carboxymethylcellulose (CMC)): 205 % of control and 257 % of control
T/C (endpoint: mean survival time, dose: 0.9 mg/kg/injection, schedule: Q01DX Z (ip), vehicle: methylcellulose (MC)): 181 % of control and 250 % of control
T/C (endpoint: mean survival time, dose: 0.9 mg/kg/injection, schedule: Q01DX Z (oral), vehicle: carboxymethylcellulose (CMC)): 117 % of control
T/C (endpoint: mean survival time, dose: 0.9 mg/kg/injection, schedule: Q01DX Z (sc), vehicle: methylcellulose (MC)): 98 % of control and 101 % of control
T/C [1]: 202 % of control and 222 % of control and 253 % of control
T/C (endpoint: mean survival time, dose: 1.0 mg/kg/injection, schedule: Q01DX010 (iv), vehicle: saline): 215 % of control
T/C (endpoint: mean survival time, dose: 1.35 mg/kg/injection, schedule: Q01DX Z (ip), vehicle: carboxymethylcellulose (CMC)): 176 % of control and 227 % of control
T/C (endpoint: mean survival time, dose: 1.5 mg/kg/injection, schedule: Q03DX Z (oral), vehicle: saline): 234 % of control
T/C (endpoint: mean survival time, dose: 1.6 mg/kg/injection, schedule: Q01DX Z (oral), vehicle: methylcellulose (MC)): 167 % of control
T/C (endpoint: mean survival time, dose: 1.75 mg/kg/injection, schedule: Q07DX Z (oral), vehicle: saline): 178 % of control
T/C (endpoint: mean survival time, dose: 1.8 mg/kg/injection, schedule: Q01DX Z (oral), vehicle: carboxymethylcellulose (CMC)): 102 % of control and 117 % of control
T/C [2]: 219 % of control and 317 % of control and 319 % of control
T/C (endpoint: mean survival time, dose: 2.0 mg/kg/injection, schedule: Q01DX010 (iv), vehicle: saline): 123 % of control
T/C (endpoint: mean survival time, dose: 3.5 mg/kg/injection, schedule: Q01DX Z (oral), vehicle: carboxymethylcellulose (CMC)): 114 % of control
T/C (endpoint: mean survival time, dose: 3.5 mg/kg/injection, schedule: Q07DX Z (oral), vehicle: saline): 266 % of control
T/C (endpoint: mean survival time, dose: 3.6 mg/kg/injection, schedule: Q01DX001 (ip), vehicle: saline): 239 % of control and 271 % of control and 91 % of control
T/C [3]: 111 % of control and 113 % of control
T/C (endpoint: mean survival time, dose: 7.0 mg/kg/injection, schedule: Q01DX Z (oral), vehicle: carboxymethylcellulose (CMC)): 194 % of control
T/C (endpoint: mean survival time, dose: 7.2 mg/kg/injection, schedule: Q01DX001 (ip), vehicle: saline): 265 % of control and 303 % of control
T/C (endpoint: mean survival time, dose: 14.0 mg/kg/injection, schedule: Q01DX Z (oral), vehicle: carboxymethylcellulose (CMC)): 111 % of control
T/C (endpoint: mean survival time, dose: 25.0 micrograms/kg/injection, schedule: Q01DX Z (oral), vehicle: steriod suspending solution): 101 % of control
T/C (endpoint: mean survival time, dose: 50.0 micrograms/kg/injection, schedule: Q01DX Z (oral), vehicle: steriod suspending solution): 104 % of control
T/C (endpoint: mean survival time, dose: 100.0 micrograms/kg/injection, schedule: Q01DX Z (oral), vehicle: steriod suspending solution): 115 % of control
T/C (endpoint: mean survival time, dose: 110.0 micrograms/kg/injection, schedule: Q01DX Z (sc), vehicle: steriod suspending solution): 102 % of control
T/C (endpoint: mean survival time, dose: 200.0 micrograms/kg/injection, schedule: Q01DX Z (oral), vehicle: steriod suspending solution): 165 % of control
T/C (endpoint: mean survival time, dose: 220.0 micrograms/kg/injection, schedule: Q01DX Z (sc), vehicle: steriod suspending solution): 105 % of control
T/C (endpoint: mean survival time, dose: 450.0 micrograms/kg/injection, schedule: Q01DX Z (sc), vehicle: steriod suspending solution): 124 % of control
T/C (endpoint: median survival time, dose: 0.5 mg/kg/injection, schedule: Q01DX009 (ip), vehicle: saline): 162 % of control
T/C (endpoint: median survival time, dose: 1.0 mg/kg/injection, schedule: Q01DX009 (ip), vehicle: saline): 206 % of control
T/C (endpoint: median survival time, dose: 2.0 mg/kg/injection, schedule: Q01DX009 (ip), vehicle: saline): 181 % of control
T/C (endpoint: median survival time, dose: 4.0 mg/kg/injection, schedule: Q01DX009 (ip), vehicle: saline): 112 % of control

O=C(Nc1cccc(C2=NCCN2)c1)c1ccc(C(=O)Nc2cccc(C3=NCCN3)c2)c(Cl)c1
T/C (endpoint: mean survival time, dose: 0.75 mg/kg/injection, schedule: Q01DX Z (ip), vehicle: carboxymethylcellulose (CMC)): 101 % of control
T/C [1]: 97 % of control
T/C (endpoint: mean survival time, dose: 1.5 mg/kg/injection, schedule: Q01DX Z (ip), vehicle: carboxymethylcellulose (CMC)): 95 % of control and 104 % of control
T/C [2]: 97 % of control
T/C (endpoint: mean survival time, dose: 3.0 mg/kg/injection, schedule: Q01DX Z (ip), vehicle: carboxymethylcellulose (CMC)): 96 % of control and 98 % of control
T/C [3]: 95 % of control
T/C (endpoint: mean survival time, dose: 6.0 mg/kg/injection, schedule: Q01DX Z (ip), vehicle: carboxymethylcellulose (CMC)): 93 % of control and 96 % of control
T/C (endpoint: mean survival time, dose: 8.0 mg/kg/injection, schedule: Q01DX009 (ip), vehicle: saline): 94 % of control
T/C (endpoint: mean survival time, dose: 9.0 mg/kg/injection, schedule: Q01DX Z (ip), vehicle: methylcellulose (MC)): 93 % of control
T/C (endpoint: mean survival time, dose: 12.0 mg/kg/injection, schedule: Q01DX Z (ip), vehicle: carboxymethylcellulose (CMC)): 95 % of control
T/C (endpoint: mean survival time, dose: 12.0 mg/kg/injection, schedule: Q01DX Z (ip), vehicle: methylcellulose (MC)): 95 % of control
T/C (endpoint: mean survival time, dose: 18.0 mg/kg/injection, schedule: Q01DX Z (ip), vehicle: methylcellulose (MC)): 109 % of control
T/C (endpoint: mean survival time, dose: 27.0 mg/kg/injection, schedule: Q01DX Z (ip), vehicle: methylcellulose (MC)): 106 % of control

CN1CCN(C(=O)Nc2ccc(N=Nc3ccccc3)cc2)CC1
T/C (endpoint: mean survival time, dose: 200.0 mg/kg/injection, schedule: Q04DX003 (ip), vehicle: Klucel (hydroxypropylcellulose) (HPC)): 87 % of control

Cc1cc2ccccc2cn1
T/C (endpoint: mean survival time, dose: 50.0 mg/kg/injection, schedule: Q01DX001 (ip), vehicle: other): 103 % of control
T/C (endpoint: mean survival time, dose: 100.0 mg/kg/injection, schedule: Q01DX001 (ip), vehicle: other): 101 % of control
T/C (endpoint: mean survival time, dose: 100.0 mg/kg/injection, schedule: Q04DX003 (ip), vehicle: saline with Tween-80): 96 % of control
T/C (endpoint: mean survival time, dose: 200.0 mg/kg/injection, schedule: Q01DX001 (ip), vehicle: other): 95 % of control
T/C (endpoint: mean survival time, dose: 200.0 mg/kg/injection, schedule: Q04DX003 (ip), vehicle: saline with Tween-80): 103 % of control

N#Cc1nc2c3ccccc3c3ccccc3c2nc1C#N
T/C (endpoint: mean survival time, dose: 75.0 mg/kg/injection, schedule: Q01DX009 (ip), vehicle: other): 90 % of control
T/C (endpoint: mean survival time, dose: 300.0 mg/kg/injection, schedule: Q01DX009 (ip), vehicle: other): 104 % of control

CC(C)(O)S(=O)(=O)O
T/C (endpoint: mean survival time, dose: 100.0 mg/kg/injection, schedule: Q04DX002 (ip), vehicle: saline with Tween-80): 95 % of control
T/C (endpoint: mean survival time, dose: 200.0 mg/kg/injection, schedule: Q04DX002 (ip), vehicle: saline with Tween-80): 101 % of control
T/C (endpoint: mean survival time, dose: 400.0 mg/kg/injection, schedule: Q04DX002 (ip), vehicle: saline with Tween-80): 98 % of control

C=C1CCC2CCCN2C1=O (stereo not drawn)
T/C (endpoint: mean survival time, dose: 25.0 mg/kg/injection, schedule: Q01DX001 (ip), vehicle: saline): 94 % of control
T/C (endpoint: mean survival time, dose: 50.0 mg/kg/injection, schedule: Q01DX001 (ip), vehicle: saline): 97 % of control
T/C (endpoint: mean survival time, dose: 100.0 mg/kg/injection, schedule: Q01DX001 (ip), vehicle: saline): 108 % of control
T/C (endpoint: mean survival time, dose: 200.0 mg/kg/injection, schedule: Q01DX001 (ip), vehicle: saline): 87 % of control

O=[N+]([O-])/C=C/c1cccc([N+](=O)[O-])c1
T/C (endpoint: mean survival time, dose: 25.0 mg/kg/injection, schedule: Q04DX003 (ip), vehicle: Klucel (hydroxypropylcellulose) (HPC)): 103 % of control
T/C (endpoint: mean survival time, dose: 50.0 mg/kg/injection, schedule: Q04DX003 (ip), vehicle: Klucel (hydroxypropylcellulose) (HPC)): 103 % of control

O=C(c1ccccc1)C1NC1c1ccccc1 (stereo not drawn)
T/C (endpoint: mean survival time, dose: 100.0 mg/kg/injection, schedule: Q01DX001 (ip), vehicle: Klucel (hydroxypropylcellulose) (HPC)): 97 % of control
T/C (endpoint: mean survival time, dose: 200.0 mg/kg/injection, schedule: Q01DX001 (ip), vehicle: Klucel (hydroxypropylcellulose) (HPC)): 92 % of control
T/C (endpoint: mean survival time, dose: 400.0 mg/kg/injection, schedule: Q01DX001 (ip), vehicle: Klucel (hydroxypropylcellulose) (HPC)): 95 % of control
